In patent US8084479B2, “Thiazole compounds and methods of use” (Amgen Inc., priority 2006, dated 2011) one finds IC50 data, which are given here for 25 compounds.

The structures appear in SMILES notation.

Chain of PKBα (P31749 118-480 limits assumed): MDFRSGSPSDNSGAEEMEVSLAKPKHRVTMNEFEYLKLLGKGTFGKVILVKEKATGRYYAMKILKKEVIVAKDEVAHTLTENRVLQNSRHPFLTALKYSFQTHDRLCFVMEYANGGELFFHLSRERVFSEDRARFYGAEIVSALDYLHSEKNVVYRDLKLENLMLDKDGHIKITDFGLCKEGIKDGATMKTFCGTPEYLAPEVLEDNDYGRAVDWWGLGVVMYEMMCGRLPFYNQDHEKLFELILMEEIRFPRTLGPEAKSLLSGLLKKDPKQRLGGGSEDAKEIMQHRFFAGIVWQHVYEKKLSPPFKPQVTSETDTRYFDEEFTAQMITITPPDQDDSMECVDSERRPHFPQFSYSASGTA

The experiment deals with PKBα (Homo sapiens, UniProt P31749). The experiment in a line: PKB kinase assay (P33-labeled ATP, peptide substrate, filter plate). In kind it is biochemical. The settings on record: PKBα enzyme (full length or kinase domain with pleckstrin domain deleted). The source says:
The kinase assay for evaluating PKB activity comprises active PKB enzymes, a PKB specific substrate, and P^33-labeled ATP. […] The phosphorylated substrate was captured by a phosphocellulose membrane filter plate (MLLIPORE) and measured by a Wallac Microbeta liquid scintillation counter (Perkin Elmer).
As to `NC(CNc1ncc(-c2ccc3c(c2)CC(=O)N3)s1)Cc1ccc(OC(F)(F)F)cc1` (stereo not shown) [Example 188, 5-(2-(-2-amino-3-(4-(trifluoromethoxy)phenyl)propylamino)thiazol-5-yl)indolin-2-one], the IC50 is < 50 nM.

In the case of `NC(CNc1ncc(-c2ccc3cnccc3c2)s1)Cc1ccc(OC(F)(F)F)cc1` (stereo not shown) [Example 189, N-(-2-amino-3-(4-(trifluoromethoxy)phenyl)propyl)-5-(isoquinolin-6-yl)thiazol-2-amine], the IC50 was < 50 nM.

Consider `NC(CNc1ncc(-c2ccc3[nH]ncc3c2)s1)Cc1ccc(C(F)(F)F)c(F)c1F` (stereo not shown) [Example 190, N-(2-amino-3-(2,3-difluoro-4-(trifluoromethyl)phenyl)propyl)-5-(1H-indazol-5-yl)thiazol-2-amine], for which the IC50 is < 50 nM.

In turn, `Cn1c(=O)[nH]c2ccc(-c3cnc(NCC(N)Cc4ccc(C(F)(F)F)c(F)c4F)s3)cc21` (stereo not shown) [Example 191, 6-(2-(2-amino-3-(2,3-difluoro-4-(trifluoromethyl)phenyl)propylamino)thiazol-5-yl)-1-methyl-1H-benzo[d]imidazol-2(3H)-one] gave an IC50 of 50 to 1000 nM.

In the case of `N[C@H](CNc1ncc(-c2ccc3c(c2)CC(=O)N3)s1)Cc1ccc(O)cc1` [Example 192, 5-(2-((S)-2-amino-3-(4-hydroxyphenyl)propylamino)thiazol-5-yl)indolin-2-one], the IC50 lay in the range of 1000 to 10000 nM.

The compound `N[C@H](CNc1ncc(-c2ccc3[nH]c(=O)[nH]c3c2)s1)Cc1ccc(C(F)(F)F)cc1` [Example 193, 5-(2-((S)-2-amino-3-(4-(trifluoromethyl)-phenyl)propylamino)thiazol-5-yl)-1H-benzo[d]imidazol-2(3H)-one] displayed an IC50 of 50 to 1000 nM.

Turning to `CN(C)C(=O)c1nc(NC[C@@H](N)Cc2ccc(C(F)(F)F)cc2)sc1-c1ccc2cnccc2c1` [Example 194, 2-((S)-2-amino-3-(4-(trifluoromethyl)phenyl)propylamino)-5-(isoquinolin-6-yl)-N,N-dimethylthiazole-4-carboxamide], the IC50 was in the range of 50 to 1000 nM.

`N[C@H](CNc1nc(C(=O)N2CCCC2)c(-c2ccc3cnccc3c2)s1)Cc1ccc(C(F)(F)F)cc1` [Example 195, (2-((S)-2-amino-3-(4-(trifluoromethyl)phenyl)propylamino)-5-(isoquinolin-6-yl)thiazol-4-yl)(pyrrolidin-1-yl)methanone]: the IC50 was in the range of 1000 to 10000 nM.

Take `N[C@H](CNc1nc(C2CCCO2)c(-c2ccc3cnccc3c2)s1)Cc1ccc(Cl)cc1` (stereo partly drawn) [Example 196, N—((S)-2-amino-3-(4-chlorophenyl)propyl)-5-(isoquinolin-6-yl)-4-(tetrahydrofuran-2-yl)thiazol-2-amine]: the IC50 lay in the range of 50 to 1000 nM.

Turning to `N[C@H](CNc1nc(C2CCCO2)c(-c2ccc3c(c2)CC(=O)N3)s1)Cc1ccc(Cl)cc1` (stereo partly drawn) [Example 197, 5-(2-((S)-2-Amino-3-(4-chlorophenyl)propylamino)-4-(tetrahydrofuran-2-yl)thiazol-5-yl)indolin-2-one], the IC50 fell in the range of 1000 to 10000 nM.

With `N[C@H](CNc1nc(C2CCCO2)c(-c2ccc3cnccc3c2)s1)Cc1ccc(C(F)(F)F)cc1` (stereo partly drawn) [Example 198, N—((S)-2-Amino-3-(4-(trifluoromethyl)phenyl)propyl)-5-(isoquinolin-6-yl)-4-(tetrahydrofuran-2-yl)thiazol-2-amine], the IC50 is < 50 nM.

Turning to `N[C@H](CNc1ncc(-c2ccc3c(c2)C2(CC2)C(=O)N3)s1)Cc1ccc(C(F)(F)F)cc1` [Example 199, 5′-(2-((S)-2-amino-3-(4-(trifluoromethyl)phenyl)propylamino)thiazol-5-yl)spiro[cyclopropane-1,3′-indol]-2′(1′H)-one], the IC50 was 50 to 1000 nM.

`C[C@@H](c1ccc(C(F)(F)F)cc1)[C@H](N)CNc1ncc(-c2ccc3c(c2)C2(CC2)C(=O)N3)s1` [Example 200, 5′-(2-((2S,3S)-2-amino-3-(4-(trifluoromethyl)phenyl)butylamino)thiazol-5-yl)spiro[cyclopropane-1,3′-indol]-2′(1′H)-one] displayed an IC50 of 50 to 1000 nM.

With `N[C@H](CNc1ncc(-c2ccc3c(c2)CC(=O)N3)s1)Cc1ccc2ccccc2c1` [Example 201, 5-(2-((S)-2-amino-3-(naphthalen-2-yl)propylamino)thiazol-5-yl)indolin-2-one], the IC50 was in the range of 50 to 1000 nM.

On to `N[C@H](CNc1ncc(-c2ccc3cnccc3c2)s1)Cc1ccc2ccccc2c1` [Example 202, N—((S)-2-amino-3-(naphthalen-2-yl)propyl)-5-(isoquinolin-6-yl)thiazol-2-amine], for which the IC50 was < 50 nM.

`Cn1c(=O)[nH]c2ccc(-c3cnc(NC[C@@H](N)Cc4ccc5ccccc5c4)s3)cc21` [Example 203, 6-(2-((S)-2-amino-3-(naphthalen-2-yl)propylamino)thiazol-5-yl)-1-methyl-1H-benzo[d]imidazol-2(3H)-one] showed an IC50 of 50 to 1000 nM.

`N[C@H](CNc1ncc(-c2ccc3[nH]c(=O)oc3c2)s1)Cc1ccc2ccccc2c1` [Example 204, 6-(2-((S)-2-amino-3-(naphthalen-2-yl)propylamino)thiazol-5-yl)benzo[d]oxazol-2(3H)-one]: the IC50 was < 50 nM.

On to `COc1cc(C[C@H](N)CNc2ncc(-c3ccc4cnccc4c3)s2)ccc1C(F)(F)F` [Example 205, N—((S)-2-amino-3-(3-methoxy-4-(trifluoromethyl)phenyl)propyl)-5-(isoquinolin-6-yl)thiazol-2-amine], for which the concentration for half-maximal inhibition (IC50) was < 50 nM.

With `COc1cc(C[C@H](N)CNc2ncc(-c3ccc4c(c3)CC(=O)N4)s2)ccc1C(F)(F)F` [Example 206, 5-(2-((S)-2-amino-3-(3-methoxy-4-(trifluoromethyl)phenyl)propylamino)thiazol-5-yl)indolin-2-one], the IC50 was < 50 nM.

Turning to `COc1cc(C[C@H](N)CNc2ncc(-c3ccc4[nH]c(=O)oc4c3)s2)ccc1C(F)(F)F` [Example 207, 6-(2-((S)-2-amino-3-(3-methoxy-4-(trifluoromethyl)phenyl)propylamino)thiazol-5-yl)benzo[d]oxazol-2(3H)-one], the IC50 is < 50 nM.

Regarding `N[C@H](CNc1ncc(-c2ccc3cnccc3c2)s1)Cc1ccc(C(F)(F)F)c(O)c1` [Example 208, 5-((S)-2-amino-3-(5-(isoquinolin-6-yl)thiazol-2-ylamino)propyl)-2-(trifluoromethyl)phenol], the IC50 is < 50 nM.

For `N[C@H](CNc1ncc(-c2ccc3c(c2)CC(=O)N3)s1)Cc1ccc(C(F)(F)F)c(O)c1` [Example 209, 5-(2-((S)-2-amino-3-(3-hydroxy-4-(trifluoromethyl)phenyl)propylamino)thiazol-5-yl)indolin-2-one], the IC50 was in the range of 50 to 1000 nM.

Take `N[C@H](CNc1ncc(-c2ccc3[nH]c(=O)oc3c2)s1)Cc1ccc(C(F)(F)F)c(O)c1` [Example 210]: the concentration for half-maximal inhibition (IC50) is < 50 nM.

With `N[C@H](CNc1ncc(-c2ccc3cnccc3c2)s1)Cc1ccc(Cl)s1` [Example 211, N—((S)-2-amino-3-(5-chlorothiophen-2-yl)propyl)-5-(isoquinolin-6-yl)thiazol-2-amine], the IC50 is < 50 nM.

On to `N[C@H](CNc1ncc(-c2ccc3c(c2)CC(=O)N3)s1)Cc1ccc(Cl)s1` [Example 212, 5-(2-((S)-2-amino-3-(5-chlorothiophen-2-yl)propylamino)thiazol-5-yl)indolin-2-one], for which the IC50 lay within 50 to 1000 nM.

In general, IC50 refers to the point on the concentration scale where inhibition reaches its midpoint.
